We go through 3 compounds from publication PMC12504763, “Antiproliferation, 3D-multicellular spheroid and VEGFR-2 inhibitory properties of spiroindolin-2-ones with phosphonate function” (Scientific Reports, 2025).

Values joined by “and” are separate entries in the source; they are usually repeats but may differ in a detail not shown here. Equal entries are not always repeated. Where two headings read alike, the source gives them in different places.

Series [1] relates to CAM blood vessel network. The experiment in a line: Chick chorioallantoic membrane (CAM) anti-angiogenic assay. Type of series: in vivo, chicken. As to conditions: 20 μL of 660 μM, 3 days; for Diameter of blood vessel (μm ± SEM): CAM test, control 459.7 ± 13.8. How it is done: CAM assay is an established xenograft technique for investigating the angiogenic effect due to the high resemblance of the human vascularized epithelium basement membrane with that of the chorioallantoic layer containing mainly type IV collagen[84]–[86].
Fig. 10 Images of light microscopy for anti-angiogenic evaluation of the tested compounds using CAM assay. […] The glass slide was placed on the surface of the CAM blood vessel network and left in an incubator at 37 °C for 3 days. The CAM blood vessel network was carefully cut and imaged under a light microscope (40 × magnification).
Fertilized white chicken eggs were incubated in a 37 °C incubator with constant humidity. On day 8, a small squared window was opened allowing the detachment of the growing CAM and shell. The opening was covered with an elastic bandage. […] The CAM was then sealed with a bandage and placed back in the incubator. CAMs were examined daily until day 12 (3 days), the vascularized membranes were then cut around the glass slide and fixed in 5% formalin. Images were taken with an Evos microscope at 40x and 100x magnification^9. Main blood vessel in the microscopic images of controls and samples were quantified by imageJ and analyzed for significant differences (n = 4).

Series [2] concerns PaCa2 (pancreatic) cancer cell line. On the set-up: method as in Reference 30. As to conditions: standard drug sunitinib; ref Reference 30; cited from earlier work.
Series [3] concerns HCT116 (colon) cancer cell line. In words: 2D-monolayer antiproliferation (MTT) against HCT116. Type of series: cell-based, human. As to conditions: for IC50: Homo sapiens, HCT-116.
Series [4] has as its system PaCa2 (pancreatic) cancer cell line. In words: 2D-monolayer antiproliferation (MTT) against PaCa2. Type of series: cell-based, human.
The subject of series [5] is MCF7 (breast) cancer cell line. In words: 2D-monolayer antiproliferation (MTT) against MCF7. Type of series: cell-based, human.
Series [6] deals with A549 (lung) cancer cell line. The experiment in a line: 2D-monolayer antiproliferation (MTT) against A549. The series is classed as cell-based, human.
The subject of series [7] is RPE1 (normal human immortalized retinal pigment epithelial cell line). In words: cells. The series is classed as cell-based. Conditions: Homo sapiens, RPE-1; MTT, normal RPE1 cell; read-out: IC50, μM ± SEM RPE1.
Series [8] concerns the target T1, VEGFR-2 (Homo sapiens, UniProt P35968).
T1 construct: endogenous in cells; host or cells: HCT116, PaCa2, MCF7 (human cancer cell lines, ATCC origin)
In words: cell-based. The series is classed as cell-based.

Series [9] concerns the target T1, VEGFR-2. The experiment in a line: cell-based. The series is classed as cell-based. This is another data set of the same source.
For series [10], the target named is T1, VEGFR-2. In words: cell-based. Type of series: cell-based. The source holds these as a separate data set.
In series [11] the target is T2, COX-1 (Ovis aries, UniProt P05979).
T2 construct: purchased BioVision incorporated USA K548–100
T2 sequence (P05979 25-600): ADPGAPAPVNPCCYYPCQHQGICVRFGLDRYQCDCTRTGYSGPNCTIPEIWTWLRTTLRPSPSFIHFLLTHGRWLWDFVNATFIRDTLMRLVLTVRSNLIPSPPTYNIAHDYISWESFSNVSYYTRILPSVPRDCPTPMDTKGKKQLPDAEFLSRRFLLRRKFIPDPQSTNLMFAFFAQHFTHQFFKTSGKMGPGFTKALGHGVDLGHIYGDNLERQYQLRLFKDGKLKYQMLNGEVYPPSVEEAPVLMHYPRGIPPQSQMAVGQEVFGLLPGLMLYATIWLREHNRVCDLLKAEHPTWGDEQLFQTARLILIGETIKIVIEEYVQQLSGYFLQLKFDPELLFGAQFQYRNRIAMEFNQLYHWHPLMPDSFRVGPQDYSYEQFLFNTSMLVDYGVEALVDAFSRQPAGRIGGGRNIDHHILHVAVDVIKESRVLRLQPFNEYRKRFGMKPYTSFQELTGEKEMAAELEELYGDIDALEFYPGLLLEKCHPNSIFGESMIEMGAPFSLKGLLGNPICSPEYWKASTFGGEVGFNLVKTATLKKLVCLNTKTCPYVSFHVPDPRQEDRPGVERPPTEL
The experiment in a line: biochemical. Conditions: 3 replicates, read-out: % Inhibition of COX-1 ± SEM.

Series [12] has as its target T3, COX-2 (Homo sapiens, UniProt P35354).
T3 construct: purchased BioVision incorporated USA K548–100
T3 sequence (P35354 18-604): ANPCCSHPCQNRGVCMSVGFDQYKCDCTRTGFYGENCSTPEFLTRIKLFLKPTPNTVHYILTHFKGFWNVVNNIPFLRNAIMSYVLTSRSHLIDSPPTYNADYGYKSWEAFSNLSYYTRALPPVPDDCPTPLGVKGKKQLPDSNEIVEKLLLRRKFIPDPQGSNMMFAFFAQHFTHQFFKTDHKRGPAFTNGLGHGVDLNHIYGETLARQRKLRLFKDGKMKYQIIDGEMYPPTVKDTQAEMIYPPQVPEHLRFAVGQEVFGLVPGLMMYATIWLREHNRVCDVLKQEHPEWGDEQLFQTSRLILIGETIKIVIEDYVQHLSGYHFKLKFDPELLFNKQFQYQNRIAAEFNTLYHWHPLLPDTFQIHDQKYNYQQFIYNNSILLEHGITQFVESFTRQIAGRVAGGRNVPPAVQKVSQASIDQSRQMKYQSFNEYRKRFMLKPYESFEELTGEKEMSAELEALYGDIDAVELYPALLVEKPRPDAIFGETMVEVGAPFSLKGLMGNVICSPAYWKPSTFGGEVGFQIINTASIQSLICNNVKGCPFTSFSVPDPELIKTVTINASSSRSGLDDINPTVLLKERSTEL
In words: biochemical.

Series [13] relates to TNF-α. In words: TNF-α inhibitory properties (ELISA), HCT116 cell lysate. The series is classed as cell-based, human. Conditions: at 10 μM, control 95.74 ± 0.5. On the technique in general: In an ELISA, binding on a coated surface is turned into a signal by an enzyme label.
Series [14] relates to TNF-α. In words: TNF-α inhibitory properties (ELISA), PaCa2 cell lysate. The series is classed as cell-based, human. Conditions: at 10 μM, control 111.8 ± 2.0.
In series [15] the test system is TNF-α. The experiment in a line: TNF-α inhibitory properties (ELISA), MCF7 cell lysate. Type of series: cell-based, human. As to conditions: at 10 μM.
For series [16], the system named is HCT116 3D-spheroid. As to conditions: HCT116 3D-spheroid at 50 μM, relative to control.
The subject of series [17] is A549 (lung) cancer cell line. On the set-up: method as in Reference 45. Conditions: standard drug doxorubicin; ref Reference 45; cited from earlier work.

T1 sequence (P35968 20-1356): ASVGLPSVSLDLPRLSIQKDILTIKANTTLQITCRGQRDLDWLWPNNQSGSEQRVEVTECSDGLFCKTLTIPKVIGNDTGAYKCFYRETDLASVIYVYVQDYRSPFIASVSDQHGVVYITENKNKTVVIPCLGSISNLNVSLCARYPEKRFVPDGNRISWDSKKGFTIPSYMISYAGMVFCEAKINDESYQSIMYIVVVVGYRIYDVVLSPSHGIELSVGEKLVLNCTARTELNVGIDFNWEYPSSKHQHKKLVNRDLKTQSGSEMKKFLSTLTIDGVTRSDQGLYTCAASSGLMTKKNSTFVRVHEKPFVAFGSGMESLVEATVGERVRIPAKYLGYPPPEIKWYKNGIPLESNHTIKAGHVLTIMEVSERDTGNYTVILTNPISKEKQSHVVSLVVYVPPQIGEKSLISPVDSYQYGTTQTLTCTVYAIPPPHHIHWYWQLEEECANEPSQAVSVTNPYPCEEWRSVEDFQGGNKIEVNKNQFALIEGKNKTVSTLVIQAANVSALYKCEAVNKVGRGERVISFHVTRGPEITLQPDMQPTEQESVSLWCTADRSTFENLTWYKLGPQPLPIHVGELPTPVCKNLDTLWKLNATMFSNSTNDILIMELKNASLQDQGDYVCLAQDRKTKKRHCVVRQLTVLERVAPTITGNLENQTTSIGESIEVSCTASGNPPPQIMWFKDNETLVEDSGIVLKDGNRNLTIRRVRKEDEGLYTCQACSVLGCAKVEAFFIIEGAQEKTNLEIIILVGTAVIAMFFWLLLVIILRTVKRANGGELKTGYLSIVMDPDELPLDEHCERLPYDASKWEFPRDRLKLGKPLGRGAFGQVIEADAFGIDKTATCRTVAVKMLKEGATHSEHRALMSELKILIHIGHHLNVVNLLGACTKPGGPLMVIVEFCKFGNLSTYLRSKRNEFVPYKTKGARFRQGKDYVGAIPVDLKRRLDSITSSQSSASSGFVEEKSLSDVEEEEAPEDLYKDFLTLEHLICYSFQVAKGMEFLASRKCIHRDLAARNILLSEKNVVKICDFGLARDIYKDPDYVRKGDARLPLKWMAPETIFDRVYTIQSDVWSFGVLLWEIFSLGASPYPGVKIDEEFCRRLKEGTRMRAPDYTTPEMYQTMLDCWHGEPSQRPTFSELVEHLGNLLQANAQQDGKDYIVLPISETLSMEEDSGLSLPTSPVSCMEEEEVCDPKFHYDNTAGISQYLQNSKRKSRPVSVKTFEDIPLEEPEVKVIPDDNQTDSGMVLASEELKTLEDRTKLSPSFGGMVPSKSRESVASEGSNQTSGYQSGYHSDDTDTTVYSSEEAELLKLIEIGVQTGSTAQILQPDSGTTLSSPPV

Consider `CCN(CC)CCNC(=O)c1c(C)[nH]c(/C=C2\C(=O)Nc3ccc(F)cc32)c1C` [Sunitinib, reference compound], for which, in series [1], the “% Inhibition of the blood vessels in CAM test” value was 88.6% and the “Diameter of blood vessel (μm ± SEM)” value was found to be 52.3 ± 1.7 μm. Also, the IC50 in [2] is 16.9 µM.

Turning to `CCOP(=O)(OCC)N1C/C(=C\c2ccc(OC)cc2)C(=O)C2(C1)C(c1ccc(OC)cc1)CN(C)C21C(=O)Nc2ccccc21` (stereo not drawn) [Compound 17p, Diethyl (E)-[5′′-(4-methoxybenzylidene)-4′-(4-methoxyphenyl)-1′-methyl-2,4′′-dioxodispiro[indoline-3,2′-pyrrolidine-3′,3′′-piperidin]-1′′-yl]phosphonate], the IC50 is 5.51 ± 0.138 µM in series [3] (MTT, 72 h incubation, HCT116 colon, read-out: IC50, μM ± SEM HCT116); 5.51 µM in series [3] (log of observed IC50 (μM), HCT116, read-out: Log(observed property) (converted)); 7.32 ± 0.226 µM in series [4] (Homo sapiens, PaCa-2, MTT, 72 h incubation, PaCa2 pancreatic, read-out: IC50, μM ± SEM PaCa2); 5.43 ± 0.14 µM in series [5] (Homo sapiens, MTT, 72 h incubation, MCF7 breast, read-out: IC50, μM ± SEM MCF7); 13 ± 0.284 µM in series [6] (Homo sapiens, MTT, 72 h incubation, A549 lung, read-out: IC50, μM ± SEM A549); 14.2 ± 0.638 µM in series [7]. Moreover, the “SI (selectivity index) HCT116” value in series [3] (IC50 of RPE1 normal cell/IC50 of HCT116) was 2.6. Also, the “1/(observed property)” value in series [4] (1/observed IC50 (μM), PaCa2) was 0.1367. Further, the “SI (selectivity index) PaCa2” value in [4] (IC50 of RPE1 normal cell/IC50 of PaCa2) is given as 1.9. For the same compound, in series [5] (IC50 of RPE1 normal cell/IC50 of MCF7), the “SI (selectivity index) MCF7” value amounted to 2.6. Further, the “SI (selectivity index) A549” value in series [6] (IC50 of RPE1 normal cell/IC50 of A549) is reported as 1.1. The inhibition at 10 µM was determined as 90% in series [8] (HCT-116, HCT116); 93.3% in [9] (PaCa-2, PaCa2); 81.3% in [10] (MCF7); 51.1 ± 2.7% in [11]; 53.5 ± 2.1% in [12] (3 replicates, read-out: % Inhibition of COX-2 ± SEM). In addition, the “VEGFR-2 pg/mL ± SEM HCT116” value in series [8] (at 10 μM, control 317.80 ± 3.5) came to 31.80 ± 0.8 pg/mL. In addition, the “VEGFR-2 pg/mL ± SEM PaCa2” value in [9] (at 10 μM, control 326.80 ± 1.9) is 21.76 ± 0.4 pg/mL. For the same compound, in series [10] (at 10 μM, control 258.70 ± 2.3), the “VEGFR-2 pg/mL ± SEM MCF7” value is 48.30 ± 0.4 pg/mL. Also, in [12] (at 10 μM), the “SI (selectivity index, COX-2/COX-1)” value was determined as 1.10. Further, the “TNF-α pg/mL (± SEM) HCT116” value in series [13] turned out to be 26.21 ± 1.3 pg/mL. For the same compound, in [14], the “TNF-α pg/mL (± SEM) PaCa2” value amounted to 25.8 ± 1.8 pg/mL. Besides, the “TNF-α % inhibition MCF7” value in [15] was found to be 65.7%. Further, in [15] (control 83.26 ± 1.1), the “TNF-α pg/mL (± SEM) MCF7” value was 28.56 ± 2.9 pg/mL. Moreover, in [1], the “Diameter of blood vessel (μm ± SEM)” value was 79.3 ± 3.3 μm. Moreover, the “%CT (± SEM), percentage cytotoxicity” value in series [16] is 68.3% and 68.3 ± 0.6%.

Consider `COc1cccc2c1C(=O)c1c(O)c3c(c(O)c1C2=O)C[C@@](O)(C(=O)CO)C[C@@H]3O[C@H]1C[C@H](N)[C@H](O)[C@H](C)O1` [Doxorubicin], for which the IC50 in series [17] was 5.93 µM.

One may read the inhibition as the relative decrease from the control value, in per cent.
